Assay results taken from patent US10112941B2, “Tricyclic compounds as anticancer agents” (BRISTOL-MYERS SQUIBB COMPANY, priority 2013, dated 2018).

target: BRD4 (Homo sapiens, UniProt O60885); experiment: Time Resolved Fluorescence Resonance Energy Transfer (TR-FRET) binding assay, BRD4; conditions: one of the FRET assays described; read-out: FRET BRD4 IC50

Row | SMILES | IC50
1 | [2H][C@@](c1ccccc1F)(C1CCOCC1)n1c2cc(C(C)(C)O)ccc2c2ncc(-c3c(C)nnn3C)cc21 [Example 92, 2-[3-(Dimethyl-1H-1,2,3-triazol-5-yl)-5-[(S)-oxan-4-yl(2-fluorophenyl)(^2H)methyl]-5H-pyrido[3,2-b]indol-7-yl]propan-2-ol] | < 5 nM
2 | Cc1nnn(C)c1-c1cnc2c3ccc(C(C)(C)O)cc3n([C@@H](c3ccccc3F)C3CCOCC3)c2c1 [Example 93, 2-[3-(dimethyl-1H-1,2,3-triazol-5-yl)-5-[(R)-oxan-4-yl(2-fluorophenyl)(^2H)methyl]-5H-pyrido[3,2-b]indol-7-yl]propan-2-ol] | < 5 nM
3 | Cc1nnn(C)c1-c1cnc2c3c(F)cc(C(C)(C)O)cc3n([C@H](c3ccccc3F)C3CCOCC3)c2c1 [Example 114, 2-[3-(Dimethyl-1H-1,2,3-triazol-5-yl)-9-fluoro-5-[(S)-(2-fluorophenyl)(oxan-4-yl)methyl]-5H-pyrido[3,2-b]indol-7-yl]propan-2-ol] | < 5 nM
4 | Cc1nnn(C)c1-c1cnc2c3c(C(=O)NC4CC4)cccc3n([C@H](c3ccccc3)C3CCOCC3)c2c1 [Example 151, N-Cyclopropyl-3-(dimethyl-1H-1,2,3-triazol-5-yl)-5-[(S)-oxan-4-yl(phenyl)methyl]-5H-pyrido[3,2-b]indole-9-carboxamide] | < 5 nM
5 | Cc1nnn(C)c1-c1cnc2c3c(F)ccc(CO)c3n([C@H](c3ccccc3)C3CCOCC3)c2c1 [Example 152, [3-(Dimethyl-1H-1,2,3-triazol-5-yl)-9-fluoro-5-[(S)-oxan-4-yl(phenyl)methyl]-5H-pyrido[3,2-b]indol-6-yl]methanol] | < 5 nM
6 | Cc1nnn(C)c1-c1cnc2c3cc(CCC(C)(C)O)ccc3n([C@H](c3ccccc3)C3CCOCC3)c2c1 [Example 153, 4-[3-(Dimethyl-1H-1,2,3-triazol-5-yl)-5-[(S)-oxan-4-yl(phenyl)methyl]-5H-pyrido[3,2-b]indol-8-yl]-2-methylbutan-2-ol] | < 5 nM
7 | [2H]C([2H])([2H])c1nnn(C)c1-c1cnc2c3ccc(S(C)(=O)=O)cc3n(C(c3ccccc3)C3CCC(F)(F)CC3)c2c1 (stereo not shown) [Example 158, 5-{5-[(4,4-Difluorocyclohexyl)(phenyl)methyl]-7-methanesulfonyl-5H-pyrido[3,2-b]indol-3-yl}-4-(^2H3)methyl-1-methyl-1H-1,2,3-triazole] | < 5 nM
8 | [2H]C([2H])([2H])c1nnn(C)c1-c1cnc2c3ccc(S(C)(=O)=O)cc3n(C(c3ccccc3)C3CCC(F)(F)CC3)c2c1 (stereo not shown) [Example 159, 5-{5-[(4,4-Difluorocyclohexyl)(phenyl)methyl]-7-methanesulfonyl-5H-pyrido[3,2-b]indol-3-yl}-4-(^2H3)methyl-1-methyl-1H-1,2,3-triazole] | < 5 nM
9 | Cc1nnn(C)c1-c1cnc2c3c(S(C)(=O)=O)cc(F)c(F)c3n([C@H](c3ccccc3)C3CCOCC3)c2c1 [Example 160, 5-{6,7-Difluoro-9-methanesulfonyl-5-[(S)-oxan-4-yl(phenyl)methyl]-5H-pyrido[3,2-b]indol-3-yl}-1,4-dimethyl-1H-1,2,3-triazole] | < 5 nM
10 | [2H]C([2H])([2H])c1nnn(C)c1-c1cnc2c3c(S(C)(=O)=O)cc(F)c(F)c3n([C@H](c3ccccc3)C3CCOCC3)c2c1 [Example 161, 5-{6,7-Difluoro-9-methanesulfonyl-5-[(S)-oxan-4-yl(phenyl)methyl]-5H-pyrido[3,2-b]indol-3-yl}-4-(^2H3)methyl-1-methyl-1H-1,2,3-triazole] | < 5 nM
11 | [2H]C([2H])([2H])c1nnn(C)c1-c1cnc2c3c(S(C)(=O)=O)cc(OC)c(OC)c3n([C@H](c3ccccc3)C3CCOCC3)c2c1 [Example 162, 5-{9-Methanesulfonyl-6,7-dimethoxy-5-[(S)-oxan-4-yl(phenyl)methyl]-5H-pyrido[3,2-b]indol-3-yl}-4-(^2H3)methyl-1-methyl-1H-1,2,3-triazole] | < 5 nM
12 | [2H]C([2H])([2H])c1nnn(C)c1-c1cnc2c3c(S(C)(=O)=O)cc(F)c(OC)c3n([C@H](c3ccccc3)C3CCOCC3)c2c1 [Example 163, 5-{7-Fluoro-9-methanesulfonyl-6-methoxy-5-[(S)-oxan-4-yl(phenyl)methyl]-5H-pyrido[3,2-b]indol-3-yl}-4-(^2H3)methyl-1-methyl-1H-1,2,3-triazole] | < 5 nM
13 | Cc1noc(C)c1-c1cnc2c3ccc(S(C)(=O)=O)cc3n([C@H](c3ccccc3)C3CCOCC3)c2c1 [Example 171, 4-{7-Methanesulfonyl-5-[(S)-oxan-4-yl(phenyl)methyl]-5H-pyrido[3,2-b]indol-3-yl}-3,5-dimethyl-1,2-oxazole] | < 5 nM
14 | Cc1noc(C)c1-c1cnc2c3ccc(S(C)(=O)=O)cc3n([C@H](c3ccc(F)cc3)C3CCOCC3)c2c1 [Example 172, 4-{5-[(S)-(4-Fluorophenyl)(oxan-4-yl)methyl]-7-methanesulfonyl-5H-pyrido[3,2-b]indol-3-yl}-3,5-dimethyl-1,2-oxazole] | < 5 nM
15 | Cc1noc(C)c1-c1cnc2c3ccc(S(C)(=O)=O)cc3n([C@H](c3ccccc3F)C3CCOCC3)c2c1 [Example 173] | < 5 nM
16 | Cc1noc(C)c1-c1cnc2c3ccc(S(C)(=O)=O)cc3n([C@@H](c3ccccc3F)C3CCOCC3)c2c1 [Example 174] | < 5 nM
17 | Cc1nnn(C)c1-c1cnc2c3cc(C(C)(C)O)ccc3n([C@H](c3ccccc3)C3CCOCC3)c2c1 [Example 175, 2-[3-(Dimethyl-1H-1,2,3-triazol-5-yl)-5-[(S)-oxan-4-yl(phenyl)methyl]-5H-pyrido[3,2-b]indol-8-yl]propan-2-ol] | < 5 nM
18 | Cc1nnn(C)c1-c1cnc2c3cc(C(C)(C)O)ccc3n([C@H](c3ccc(F)cc3)C3CCOCC3)c2c1 [Example 176, 2-[3-(Dimethyl-1H-1,2,3-triazol-5-yl)-5-[(S)-(4-fluorophenyl)(oxan-4-yl)methyl]-5H-pyrido[3,2-b]indol-8-yl]propan-2-ol] | < 5 nM
19 | Cc1nnn(C)c1-c1cnc2c3ccc(S(C)(=O)=O)cc3n([C@H](c3ccccc3)C3CCOCC3)c2c1 [Example 177, 5-{7-Methanesulfonyl-5-[(S)-oxan-4-yl(phenyl)methyl]-5H-pyrido[3,2-b]indol-3-yl}-1,4-dimethyl-1H-1,2,3-triazole] | < 5 nM
20 | Cc1nnn(C)c1-c1cnc2c3ccc(S(C)(=O)=O)cc3n([C@H](c3ccc(F)cc3)C3CCOCC3)c2c1 [Example 178, 5-{5-[(S)-(4-Fluorophenyl)(oxan-4-yl)methyl]-7-methanesulfonyl-5H-pyrido[3,2-b]indol-3-yl}-1,4-dimethyl-1H-1,2,3-triazole] | < 5 nM
21 | Cn1nnc(CO)c1-c1cnc2c3ccc(S(C)(=O)=O)cc3n([C@H](c3ccccc3)C3CCOCC3)c2c1 [Example 179, (5-{7-Methanesulfonyl-5-[(S)-oxan-4-yl(phenyl)methyl]-5H-pyrido[3,2-b]indol-3-yl}-1-methyl-1H-1,2,3-triazol-4-yl)methanol] | < 5 nM
22 | Cn1nnc(CF)c1-c1cnc2c3ccc(S(C)(=O)=O)cc3n([C@H](c3ccccc3)C3CCOCC3)c2c1 [Example 180, 4-(Fluoromethyl)-5-{7-methanesulfonyl-5-[(S)-oxan-4-yl(phenyl)methyl]-5H-pyrido[3,2-b]indol-3-yl}-1-methyl-1H-1,2,3-triazole] | < 5 nM
